In PubChem BioAssay AID1259407 (Chemical Carcinogenesis Research Information System (CCRIS), 2018):
The source made the active and inactive calls. No rule for the calls is given here.

Test system: CCRIS mutagenicity, Ames/micronucleus/aberration tests
Assay: CCRIS mutagenicity studies
Conditions: Test System: AMES SALMONELLA TYPHIMURIUM

COc1c2occc2cc2ccc(=O)oc12
mutagenic call (Strain/Indicator: TA92, Metabolic Activation: NONE, Method: SPOT TEST): inactive; negative | mutagenic call (Strain/Indicator: TA92, Metabolic Activation: RAT, LIVER, S-9, AROCLOR 1254, Method: SPOT TEST): inactive; negative | mutagenic call (Strain/Indicator: TA94, Metabolic Activation: NONE, Method: SPOT TEST): inactive; negative | mutagenic call (Strain/Indicator: TA94, Metabolic Activation: RAT, LIVER, S-9, AROCLOR 1254, Method: SPOT TEST): inactive; negative | mutagenic call (Strain/Indicator: TA97, Metabolic Activation: NONE, Method: SPOT TEST): inactive; negative | mutagenic call (Strain/Indicator: TA97, Metabolic Activation: RAT, LIVER, S-9, AROCLOR 1254, Method: SPOT TEST): inactive; negative | mutagenic call (Strain/Indicator: TA98, Metabolic Activation: HAMSTER, LIVER, S-9 (30%), AROCLOR 1254, Method: PREINCUBATION): inactive; negative | mutagenic call (Strain/Indicator: TA98, Metabolic Activation: NONE, Method: PREINCUBATION): inactive; negative | mutagenic call (Strain/Indicator: TA98, Metabolic Activation: NONE, Method: SPOT TEST): inactive; negative | mutagenic call (Strain/Indicator: TA98, Metabolic Activation: NONE, Method: STANDARD PLATE): inactive; negative | mutagenic call (Strain/Indicator: TA98, Metabolic Activation: RAT, LIVER, S-9, AROCLOR 1254, Method: SPOT TEST): inactive; negative | mutagenic call (Strain/Indicator: TA98, Metabolic Activation: RAT, LIVER, S-9, PHENOBARBITAL, Method: STANDARD PLATE): inactive; negative | mutagenic call (Strain/Indicator: TA100, Metabolic Activation: HAMSTER, LIVER, S-9 (5%, 10% OR 30%), AROCLOR 1254, Method: PREINCUBATION): active; positive | mutagenic call (Strain/Indicator: TA100, Metabolic Activation: NONE, Method: PREINCUBATION): inactive; negative | mutagenic call (Strain/Indicator: TA100, Metabolic Activation: NONE, Method: SPOT TEST): inactive; negative | mutagenic call (Strain/Indicator: TA100, Metabolic Activation: RAT, LIVER, S-9 (10%), AROCLOR 1254, Method: PREINCUBATION): inactive; negative | mutagenic call (Strain/Indicator: TA100, Metabolic Activation: RAT, LIVER, S-9, AROCLOR 1254, Method: SPOT TEST): inactive; negative | mutagenic call (Strain/Indicator: TA102, Metabolic Activation: HAMSTER, LIVER, S-9 (5%), AROCLOR 1254, Method: PREINCUBATION): active; positive | mutagenic call (Strain/Indicator: TA102, Metabolic Activation: NONE, Method: PREINCUBATION): inactive; negative | mutagenic call (Strain/Indicator: TA102, Metabolic Activation: NONE, Method: SPOT TEST): inactive; negative | mutagenic call (Strain/Indicator: TA102, Metabolic Activation: RAT, LIVER, S-9 (5%), AROCLOR 1254, Method: PREINCUBATION): active; positive | mutagenic call (Strain/Indicator: TA102, Metabolic Activation: RAT, LIVER, S-9, AROCLOR 1254, Method: SPOT TEST): inactive; negative | mutagenic call (Strain/Indicator: TA104, Metabolic Activation: HAMSTER, LIVER, S-9 (30%), AROCLOR 1254, Method: PREINCUBATION): active; positive | mutagenic call (Strain/Indicator: TA104, Metabolic Activation: RAT, LIVER, S-9 (5% OR 10%), AROCLOR 1254, Method: PREINCUBATION): active; positive | mutagenic call (Strain/Indicator: TA104, Metabolic Activation: RAT, LIVER, S-9(30%), AROCLOR 1254, Method: PREINCUBATION): active; positive | mutagenic call (Strain/Indicator: TA1535, Metabolic Activation: HAMSTER, LIVER, S-9 (30%), AROCLOR 1254, Method: PREINCUBATION): inactive; negative | mutagenic call (Strain/Indicator: TA1535, Metabolic Activation: NONE, Method: PREINCUBATION): inactive; negative | mutagenic call (Strain/Indicator: TA1535, Metabolic Activation: RAT, LIVER, S-9 (30%), AROCLOR 1254, Method: PREINCUBATION): inactive; negative
